# In US20070299092A1 (Wyeth, priority 2004, published 2007):
# Several values for one entry are separate records, joined by “and”; a condition that tells them apart may be missing. Equal entries are not always repeated. Where two headings read alike, the source gives them in different places.
# Legend:
# [1] = test system: Human umbilical vein endothelial cells (HUVEC); test: HUVEC proliferation assay, VEGF-dependent growth ([3H]-thymidine incorporation); format: cell-based; conditions: for inhibition at 10 µM / inhibition at 0.1 µM / inhibition at 1 µM: Homo sapiens, HUVEC; for inhibition at 0.1 µM: conc. 100 nM
# Method: Cells were plated into 96-well dishes (4000 cells per well) and allowed to attach overnight. HUVEC were rinsed one time with 100 μl of EBMc-V (EBM supplemented with all above components except serum or VEGF), then 50 ul of EBMc-V was added to cells. Compounds were prepared at 200× stocks in DMSO, diluted into EBMc-V media as 4× stocks, then 50 ul added to appropriate wells. Finally, 100 μl of 2×VEGF (100 ng/ml prepared in EBMc-V; final 50 ng/ml VEGF) was added to all VEGF-treated wells. EBMc-V (no VEGF) was added to negative control wells. Parallel compound-treated plates were prepared except that 100 μl of EGM2 media containing 2% serum but lacking VEGF (EGMc-V) was added. Cells were incubated for 4-5 days at 37° C.
# DNA synthesis was assessed by thymidine incorporation. Cells were incubated for 5 hours in 1 μCi of [^3H]-thymidine (PerkinElmer) by addition of 10 ul of 0.1 μCi/ul thymidine prepared in PBS to each well. After incubation, media was aspirated and the cells trypsinized and collected onto a mat using a vacuum-based Micro Cell Harvester (Skatron). [^3H]-thymidine was counted in a liquid scintillation counter. Compounds evaluated for ability to inhibit VEGF-dependent growth of human umbilical vein endothelial cells (HUVEC).
# [2] = target: KDR (Homo sapiens, UniProt P35968); test: cell-based; conditions: for inhibition at 1 µM: read-out: % Inhibition of KDR kinase autophosphorylation in KDR15 cells, compound conc. 1000 nM
# [3] = target: T1, human KDR (VEGF-receptor-2) (Homo sapiens, UniProt P35968); test: KDR kinase enzyme assay (DELFIA, KDR-IC-Flag, poly(Glu4-Tyr) peptide); format: biochemical; conditions: for inhibition at 0.1 µM: Concentration 100 nM; for inhibition at 0.1 µM / inhibition at 1 µM: read-out: % Inhibition; for inhibition at 1 µM: Concentration 1000 nM
# T1 construct: beginning at Met-806; (5′-ATG GAT CCA GAT GM CTC CCA TTG) and ending at Val-1356; made in house
# [4] = target: T1, human KDR (VEGF-receptor-2); test: KDR kinase enzyme assay wash-out experiments (irreversible inhibition); format: biochemical
# Method: To determine if compounds bound irreversibly to enzyme, plates were washed after the enzyme plus compound pre-incubation step and prior to the addition of ATP. Parallel plates were tested wherein one plate was processed exactly as above while a second plate was washed three times in 100 μl of 4 mM HEPES, pH 7.4, to remove unbound compound. 1× Kinase buffer (30 μl of 1 mM MnCl2, 4 mM HEPES, pH 7.4, 20 μM Na3VO4) and 20 μl of ATP/MgCl2 were added to the wash-out plate. Detection of phosphotyrosinylated peptide for both plates was performed as described above.
# For each inhibitor shown in Table 2, two IC50 determinations are shown, one under normal conditions and the other where an intermediate wash-out step is carried out. […] If there was a large increase in the IC50 value in the wash-out experiment compared to the experiment where there was no wash-out, then it was determined that the compound was behaving as a conventional reversible binding inhibitor.
# KDR, sequence (P35968 20-1356): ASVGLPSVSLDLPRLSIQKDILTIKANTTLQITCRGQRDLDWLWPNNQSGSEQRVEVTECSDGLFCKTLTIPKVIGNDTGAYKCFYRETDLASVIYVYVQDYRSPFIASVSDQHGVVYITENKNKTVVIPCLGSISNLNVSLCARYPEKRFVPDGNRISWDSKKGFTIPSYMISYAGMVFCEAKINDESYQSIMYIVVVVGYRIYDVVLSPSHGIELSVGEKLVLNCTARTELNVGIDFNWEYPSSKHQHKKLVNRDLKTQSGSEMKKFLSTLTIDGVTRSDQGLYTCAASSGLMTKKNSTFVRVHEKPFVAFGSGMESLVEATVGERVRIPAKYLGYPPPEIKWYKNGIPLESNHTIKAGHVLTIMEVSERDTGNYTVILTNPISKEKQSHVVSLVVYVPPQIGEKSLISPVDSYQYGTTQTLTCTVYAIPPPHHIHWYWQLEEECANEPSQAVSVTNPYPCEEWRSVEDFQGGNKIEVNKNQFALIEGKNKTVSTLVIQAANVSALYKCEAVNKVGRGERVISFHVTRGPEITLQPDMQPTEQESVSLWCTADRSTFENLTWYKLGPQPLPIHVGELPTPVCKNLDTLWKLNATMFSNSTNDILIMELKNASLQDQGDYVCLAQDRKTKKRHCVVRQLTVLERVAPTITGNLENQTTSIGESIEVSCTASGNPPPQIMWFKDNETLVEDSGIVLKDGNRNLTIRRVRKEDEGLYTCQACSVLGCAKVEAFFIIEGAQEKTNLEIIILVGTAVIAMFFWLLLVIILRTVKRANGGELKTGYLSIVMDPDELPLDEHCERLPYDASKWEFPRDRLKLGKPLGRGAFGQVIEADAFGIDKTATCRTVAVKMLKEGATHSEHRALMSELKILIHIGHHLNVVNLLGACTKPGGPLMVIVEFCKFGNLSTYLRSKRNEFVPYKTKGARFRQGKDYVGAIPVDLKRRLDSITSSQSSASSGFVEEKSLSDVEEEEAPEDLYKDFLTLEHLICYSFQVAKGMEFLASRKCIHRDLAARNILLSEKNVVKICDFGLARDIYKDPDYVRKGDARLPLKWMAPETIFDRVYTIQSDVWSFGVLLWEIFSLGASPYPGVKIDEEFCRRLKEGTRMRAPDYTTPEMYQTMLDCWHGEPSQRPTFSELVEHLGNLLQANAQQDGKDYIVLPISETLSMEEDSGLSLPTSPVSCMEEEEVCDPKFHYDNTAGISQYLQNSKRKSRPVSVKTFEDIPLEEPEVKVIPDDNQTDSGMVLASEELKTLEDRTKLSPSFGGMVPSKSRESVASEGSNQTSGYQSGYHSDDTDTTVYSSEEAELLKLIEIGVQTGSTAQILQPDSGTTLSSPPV
# T1 sequence (P35968 806-1356): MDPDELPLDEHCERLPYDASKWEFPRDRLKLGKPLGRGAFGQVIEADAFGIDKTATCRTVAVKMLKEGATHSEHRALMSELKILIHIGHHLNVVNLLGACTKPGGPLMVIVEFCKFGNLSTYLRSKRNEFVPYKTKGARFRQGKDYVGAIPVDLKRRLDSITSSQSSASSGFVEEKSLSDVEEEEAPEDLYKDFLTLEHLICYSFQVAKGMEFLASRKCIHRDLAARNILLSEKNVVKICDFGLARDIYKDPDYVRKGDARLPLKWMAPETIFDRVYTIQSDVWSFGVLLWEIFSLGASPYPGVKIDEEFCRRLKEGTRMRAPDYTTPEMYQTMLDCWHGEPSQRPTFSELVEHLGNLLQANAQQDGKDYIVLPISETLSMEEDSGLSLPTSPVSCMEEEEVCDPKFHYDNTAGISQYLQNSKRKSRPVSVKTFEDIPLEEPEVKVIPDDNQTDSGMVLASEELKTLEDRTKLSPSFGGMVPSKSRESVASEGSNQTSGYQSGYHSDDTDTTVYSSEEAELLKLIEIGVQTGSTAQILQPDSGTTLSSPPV
IC50 ([3]; ATP conc. 10 μM),inhibition at 0.1 µM ([3]; ATP conc. 10 μM),inhibition at 1 µM ([3]; ATP conc. 10 μM),inhibition at 1 µM [2],SMILES,also measured
175 nM and 177 nM,51%,82%,–,"CCC1=CC(=O)C(Nc2ncnc3cc(OC)c(OC)cc23)=CC1=O [Example 8, 2-[(6,7-dimethoxy-4-quinazolinyl)amino]-5-ethylbenzo-1,4-quinone]","inhibition at 10 µM ([1]; conc. 10000 nM): 87%; % Inhibition of VEGF-dependent growth of HUVEC ([1]; conc. 1000 nM): 30% and 51% and 37%; % Inhibition of VEGF-dependent growth of HUVEC ([1]; conc. 10000 nM): 98% and 89%; IC50 ([2]; IC50 (nM), inhibition of KDR kinase autophosphorylation in KDR15 cells, KDR15 cells, VEGF 50 ng/ml, phospho-KDR-Y996 immunoblot): 172 nM; inhibition at 0.5 µM ([2]; read-out: % Inhibition of KDR kinase autophosphorylation in KDR15 cells, compound conc. 500 nM): 25%; IC50 ([3]; ATP conc. 100 μM): 200 nM; IC50 ([3]; ATP conc. 1000 μM): 239 nM; inhibition at 1 µM ([3]; ATP conc. 1000 μM): 80%"
17.9 nM,92%,90%,–,COCCOc1cc2ncnc(NC3=CC(=O)C(Sc4nccs4)=C(OC)C3=O)c2cc1OC [Example 20],IC50 ([4]; no wash): 17.9 nM; IC50 ([4]; wash out): 33.1 nM; inhibition at 1 µM ([3]; ATP conc. 1000 μM): 97%
–,89%,93%,11%,"CCOC(=O)Cc1ccc(OC2=CC(=O)C(Nc3ncnc4cc(OCCOC)c(OC)cc34)=CC2=O)cc1 [Example 37, ethyl {4-[(4-{[6-methoxy-7-(2-methoxyethoxy)quinazolin-4-yl]amino}-3,6-dioxocyclohexa-1,4-dien-1-yl)oxy]phenyl}acetate]",–
3.5 nM,91%,94%,140%,"COCCOc1cc2ncnc(NC3=CC(=O)C(Oc4ccc(C(=O)c5ccccc5)cc4)=CC3=O)c2cc1OC [Example 39, 2-(4-benzoylphenoxy)-5-{[6-methoxy-7-(2-methoxyethoxy)quinazolin-4-yl]amino}benzo-1,4-quinone]",inhibition at 0.1 µM [1]: 18%; inhibition at 1 µM ([1]; conc. 1000 nM): 58%; inhibition at 10 µM ([1]; conc. 10000 nM): 99%
–,92%,94%,110%,"COCCOc1cc2ncnc(NC3=CC(=O)C(Oc4ccc(CCC(=O)OC)cc4)=CC3=O)c2cc1OC [Example 40, methyl 3-{4-[(4-{[6-methoxy-7-(2-methoxyethoxy)quinazolin-4-yl]amino}-3,6-dioxocyclohexa-1,4-dien-1-yl)oxy]phenyl}propanoate]",–
2 nM,92%,92%,120%,"COCCOc1cc2ncnc(NC3=CC(=O)C(Oc4ccc5c(c4)[nH]c4ccccc45)=CC3=O)c2cc1OC [Example 41, 2-(9H-carbazol-2-yloxy)-5-{[6-methoxy-7-(2-methoxyethoxy)quinazolin-4-yl]amino}benzo-1,4-quinone]",inhibition at 0.1 µM [1]: -5%; inhibition at 1 µM ([1]; conc. 1000 nM): 42%; inhibition at 10 µM ([1]; conc. 10000 nM): 98%
–,92%,94%,64%,"COCCOc1cc2ncnc(NC3=CC(=O)C(Oc4ccc(C(=O)OC)cc4)=CC3=O)c2cc1OC [Example 42, methyl 4-[(4-{[6-methoxy-7-(2-methoxyethoxy)quinazolin-4-yl]amino}-3,6-dioxocyclohexa-1,4-dien-1-yl)oxy]benzoate]",–
2.6 nM,92%,93%,99%,"CCOC(=O)c1c(C)[nH]c2ccc(OC3=CC(=O)C(Nc4ncnc5cc(OCCOC)c(OC)cc45)=CC3=O)cc12 [Example 45, ethyl 5-[(4-{[6-methoxy-7-(2-methoxyethoxy)quinazolin-4-yl]amino}-3,6-dioxocyclohexa-1,4-dien-1-yl)oxy]-2-methyl-1H-indole-3-carboxylate]",–
–,93%,94%,79%,"COCCOc1cc2ncnc(NC3=CC(=O)C(Oc4ccc(Br)cc4)=CC3=O)c2cc1OC [Example 46, 2-(4-bromophenoxy)-5-{[6-methoxy-7-(2-methoxyethoxy)quinazolin-4-yl]amino}benzo-1,4-quinone]",–
–,86%,94%,66%,"COCCOc1cc2ncnc(NC3=CC(=O)C(Oc4ccc(C)cc4-c4ccno4)=CC3=O)c2cc1OC [Example 47, 2-(2-isoxazol-5-yl-4-methylphenoxy)-5-{[6-methoxy-7-(2-methoxyethoxy)quinazolin-4-yl]amino}benzo-1,4-quinone]",–
–,86%,93%,74%,"COCCOc1cc2ncnc(NC3=CC(=O)C(Oc4ccc(C(=O)OCc5ccccc5)cc4)=CC3=O)c2cc1OC [Example 48, benzyl 4-[(4-{[6-methoxy-7-(2-methoxyethoxy)quinazolin-4-yl]amino}-3,6-dioxocyclohexa-1,4-dien-1-yl)oxy]benzoate]",–
149 nM,88%,93%,90%,"COCCOc1cc2ncnc(NC3=CC(=O)C(Oc4ccc(C(=O)Cc5ccccc5)cc4)=CC3=O)c2cc1OC [Example 49, 2-{[6-methoxy-7-(2-methoxyethoxy)quinazolin-4-yl]amino}-5-[4-(phenylacetyl)phenoxy]benzo-1,4-quinone]",–
–,91%,93%,105%,"COCCOc1cc2ncnc(NC3=CC(=O)C(Oc4ccc5cc(Br)ccc5c4)=CC3=O)c2cc1OC [Example 51, 2-[(6-bromo-2-naphthyl)oxy]-5-{[6-methoxy-7-(2-methoxyethoxy)quinazolin-4-yl]amino}benzo-1,4-quinone]",–
–,91%,95%,94%,"COCCOc1cc2ncnc(NC3=CC(=O)C(Oc4ccccc4OCc4ccccc4)=CC3=O)c2cc1OC [Example 52, 2-[2-(benzyloxy)phenoxy]-5-{[6-methoxy-7-(2-methoxyethoxy)quinazolin-4-yl]amino}benzo-1,4-quinone]",–
–,90%,94%,79%,"COCCOc1cc2ncnc(NC3=CC(=O)C(Oc4ccc5c(c4)Cc4ccccc4-5)=CC3=O)c2cc1OC [Example 53, 2-(9H-fluoren-2-yloxy)-5-{[6-methoxy-7-(2-methoxyethoxy)quinazolin-4-yl]amino}benzo-1,4-quinone]",–
–,-2%,10%,-5%,"COCCOc1cc2ncnc(NC3=CC(=O)C(Oc4ccc(CCN)cc4)=CC3=O)c2cc1OC [Example 54, 2-[4-(2-aminoethyl)phenoxy]-5-{[6-methoxy-7-(2-methoxyethoxy)quinazolin-4-yl]amino}benzo-1,4-quinone]",–
53.7 nM and 72.4 nM,73%,93%,–,"COCCOc1cc2ncc(C#N)c(NC3=CC(=O)C(Oc4ccc(-n5ccnc5)cc4)=CC3=O)c2cc1OC [Example 72, 4-({4-[4-(1H-imidazol-1-yl)phenoxy]-3,6-dioxocyclohexa-1,4-dien-1-yl}amino)-6-methoxy-7-(2-methoxyethoxy)quinoline-3-carbonitrile]",IC50 ([4]; no wash): 53.7 nM; IC50 ([4]; wash out): 73.7 nM; inhibition at 1 µM ([3]; ATP conc. 1000 μM): 94%
–,27%,89%,4%,"COCCOc1cc2ncnc(NC3=CC(=O)C(N(C)c4cccc(F)c4)=CC3=O)c2cc1OC [Example 74, 2-[(3-fluorophenyl)(methyl)amino]-5-{[6-methoxy-7-(2-methoxyethoxy)quinazolin-4-yl]amino}benzo-1,4-quinone]",inhibition at 1 µM ([3]; ATP conc. 1000 μM): 84%
–,15%,30%,12%,"COCCOc1cc2ncnc(NC3=CC(=O)C(N(C)Cc4ccccc4)=CC3=O)c2cc1OC [Example 82, 2-[benzyl(methyl)amino]-5-{[6-methoxy-7-(2-methoxyethoxy)quinazolin-4-yl]amino}benzo-1,4-quinone]",inhibition at 1 µM ([3]; ATP conc. 1000 μM): 45%
